Bounds are passed on as bounds.

The experiment has as its target mTOR/GbL/Raptor (mTORC1) (Homo sapiens, UniProt P42345). Briefly: mTOR/GbL/Raptor (mTORC1) ELISA assay, phosphorylation of 4E-BP1. It is filed as biochemical. The settings on record: 0.2 nM mTORC1, 40 uM ATP, 50 nM NHis-tagged 4E-BP1, 120 minutes; read-out: IC50 in this assay (mTORC1 ELISA). The protocol:
The measurement of mTORC1 enzyme activity was performed in an ELISA assay format following the phosphorylation of 4E-BP1 protein. All experiments were performed in the 384-well format. Generally, 0.5 μL DMSO containing varying concentrations of the test Compound was mixed with 15 μL enzyme solution. Kinase reactions were initiated with the addition of 15 μL of substrates-containing solution. The assay conditions were-as follows; 0.2 nM mTORC1, 40 uM ATPand 50 nM NHis-tagged4E-BP1 in20 mM Hepes, pH 7.2, 1 mM DTT, 50 mMNaC1, 10 mM MnC12, 0.02 mg/mL BSA, 0.01% CHAPS, 50 mM β-glycerophosphate. Following an incubation of 120 minutes at anibient temperature, 20 μL of the reaction volume was transferred to a Ni-Chelate-coated 384-well plate. The binding step of the 4E-BP1 protein proceeded for 60 minutes, followed by washing 4 times each with 50 uL of Tris-buffered saline solution (TBS). Anti-phospho-4E-BPl rabbit-IgG ([…]. 1:5000) in 5% BSA-TBST (0.2% Tween-20 in TBS) was added and further incubated for 60 minutes. Incubation with a secondary HRP-tagged anti-IgG was similarly performed after washing off the primary antibody (4 washes of 50 μL). Following the final wash step with TBST, 20 μL of SuperSignal ELISA Femto (Pierce Biotechnology) was added and the luminescence measured using an En Vision plate reader.
A word on the IC50: it is the concentration at which inhibition is half-maximal. In the case of `Cc1cc(-c2cnc3sc(N)nc3c2)cc2c1OCCN(c1nc(CN(C)C)nc(C)c1C(C)C)C2` [Compound 31, 6-(4-{2-[(dimethylamino)methyl]-6-methyl-5-(1-methylethyl)pyrimidin-4-yl}-9-methyl-2,3,4,5-tetrahydro-1,4-benzoxazepin-7-yl)[1,3]thiazolo[5,4-b]pyridin-2-amine], the half-maximal inhibitory concentration (IC50) is ≤ 100 nM. As for `Cc1cc(-c2cnc3sc(N)nc3c2)cc2c1OCCN(c1nc(N)c(C#N)cc1C#N)C2` [Compound 32, 2-amino-6-[7-(2-amino[1,3]thiazolo[5,4-b]pyridin-6-yl)-9-methyl-2,3-dihydro-1,4-benzoxazepin-4(5H)-yl]pyridine-3,5-dicarbonitrile], the figure is ≤ 100 nM; as for `Cc1cc(-c2cnc3sc(N)nc3c2)cc2c1OCCN(c1nccnc1C#N)C2` [Compound 34, 3-[7-(2-amino[1,3]thiazolo[5,4-b]pyridin-6-yl)-9-methyl-2,3-dihydro-1,4-benzoxazepin-4(5H)-yl]pyrazine-2-carbonitrile], ≤ 100 nM. As for `Cc1cc(-c2cnc3sc(N)nc3c2)cc2c1OCCN(c1ncc(F)c(N)n1)C2` [Compound 35, 6-[4-(4-amino-5-fluoropyrimidin-2-yl)-9-methyl-2,3,4,5-tetrahydro-1,4-benzoxazepin-7-yl][1,3]thiazolo[5,4-b]pyridin-2-amine], the IC50 was in the range of 100 to 500 nM. As for `Cc1cc(-c2cnc3sc(N)nc3c2)cc2c1OCCN(c1ccc(C#N)cn1)C2` [Compound 36, 6-[7-(2-amino[1,3]thiazolo[5,4-b]pyridin-6-yl)-9-methyl-2,3-dihydro-1,4-benzoxazepin-4(5H)-yl]pyridine-3-carbonitrile], the figure is 100 to 500 nM; as for `Cc1cnc(N2CCOc3c(C)cc(-c4cnc5sc(N)nc5c4)cc3C2)nc1N` [Compound 37, 6-[4-(4-amino-5-methylpyrimidin-2-yl)-9-methyl-2,3,4,5-tetrahydro-1,4-benzoxazepin-7-yl][1,3]thiazolo[5,4-b]pyridin-2-amine], 100 to 500 nM. To `Cc1cc(-c2cnc3sc(N)nc3c2)cc2c1OCCN(c1ncccc1C#N)C2` [Compound 38, 2-[7-(2-amino[1,3]thiazolo[5,4-b]pyridin-6-yl)-9-methyl-2,3-dihydro-1,4-benzoxazepin-4(5H)-yl]pyridine-3-carbonitrile] belongs 100 to 500 nM. As for `Cc1cc(-c2cnc3sc(N)nc3c2)cc2c1OCCN(c1ncccc1C(N)=O)C2` [Compound 39, 2-[7-(2-amino[1,3]thiazolo[5,4-b]pyridin-6-yl)-9-methyl-2,3-dihydro-1,4-benzoxazepin-4(5H)-yl]pyridine-3-carboxamide], the figure is 100 to 500 nM. As for `C=Cc1c(Cl)nc(N)nc1N1CCOc2c(C)cc(-c3cnc4sc(N)nc4c3)cc2C1` [Compound 40, 6-[4-(2-amino-6-chloro-5-ethenylpyrimidin-4-yl)-9-methyl-2,3,4,5-tetrahydro-1,4-benzoxazepin-7-yl][1,3]thiazolo[5,4-b]pyridin-2-amine], the IC50 is ≤ 100 nM. As for `CCCc1c(C)nc(N)nc1N1CCOc2c(C)cc(-c3cnc4sc(N)nc4c3)cc2C1` [Compound 41, 6-[4-(2-amino-6-methyl-5-propylpyrimidin-4-yl)-9-methyl-2,3,4,5-tetrahydro-1,4-benzoxazepin-7-yl][1,3]thiazolo[5,4-b]pyridin-2-amine], the figure is ≤ 100 nM; as for `Cc1cc(-c2ccc(-c3ncc[nH]3)cc2)cc2c1OCCN(c1nc(N)nc(C)c1C(C)C)C2` [Compound 42, 4-{7-[4-(1H-imidazol-2-yl)phenyl]-9-methyl-2,3-dihydro-1,4-benzoxazepin-4(5H)-yl}-6-methyl-5-(1-methylethyl)pyrimidin-2-amine], ≤ 100 nM; as for `Cc1cc(-c2cnc(Cl)c(NS(C)(=O)=O)c2)cc2c1OCCN(c1nc(C(=O)NCCN(C)C)nc(C)c1C(C)C)C2` [Compound 43, 4-[7-(6-chloro-5-[(methylsulfonyl)amino]pyridin-3-yl}-9-methyl-2,3-dihydro-1,4-benzoxazepin-4(5H)-yl]-N-[2-(dimethylamino)ethyl]-6-methyl-5-(1-methylethyl)pyrimidine-2-carboxamide], ≤ 100 nM. To `Cc1cc(-c2cnc(Cl)c(NS(C)(=O)=O)c2)cc2c1OCCN(c1nc(C(N)=O)nc(C)c1C(C)C)C2` [Compound 44, 4-[7-{6-chloro-5-[(methylsulfonyl)amino]pyridin-3-yl}-9-methyl-2,3-dihydro-1,4-benzoxazepin-4(5H)-yl]-6-methyl-5-(1-methylethyl)pyrimidine-2-carboxamide] belongs ≤ 100 nM; to `Cc1nc2ccc(-c3cc(C)c4c(c3)CN(c3nc(CN(C)C)nc(C)c3C(C)C)CCO4)cc2[nH]1` [Compound 45, N,N-dimethyl-1-{4-methyl-5-(1-methylethyl)-6-[9-methyl-7-(2-methyl-1H-benzimidazol-6-yl)-2,3-dihydro-1,4-benzoxazepin-4(5H)-yl]pyrimidin-2-yl}methanamine], 100 to 500 nM.

Take `Cc1cc(-c2cnc3sc(N)nc3c2)cc2c1OCCN(c1nc(N)nc(C)c1CC1CC1)C2` [Compound 46, 6-{4-[2-amino-5-(cyclopropylmethyl)-6-methylpyrimidin-4-yl]-9-methyl-2,3,4,5-tetrahydro-1,4-benzoxazepin-7-yl}[1,3]thiazolo[5,4-b]pyridin-2-amine]: the IC50 is ≤ 100 nM. To `Cc1nc2ccc(-c3cc(C)c4c(c3)CN(c3ncnc5ccc(I)cc35)CCO4)cc2[nH]1` [Compound 47, 4-(6-iodoquinazolin-4-yl)-9-methyl-7-(2-methyl-1H-benzimidazol-6-yl)-2,3,4,5-tetrahydro-1,4-benzoxazepine] belongs 100 to 500 nM.

For the compound `Cc1cnccc1N1CCOc2c(C)cc(-c3cnc4sc(N)nc4c3)cc2C1` [Compound 48, 6-[9-methyl-4-(3-methylpyridin-4-yl)-2,3,4,5-tetrahydro-1,4-benzoxazepin-7-yl][1,3]thiazolo[5,4-b]pyridin-2-amine], the half-inhibitory concentration (IC50) lay within 100 to 500 nM. To `Cc1cc(-c2cnc3sc(N)nc3c2)cc2c1OCCN(c1nc(N)nc(C)c1-c1cccc(F)c1)C2` [Compound 49, 6-{4-[2-amino-5-(3-fluorophenyl)-6-methylpyrimidin-4-yl]-9-methyl-2,3,4,5-tetrahydro-1,4-benzoxazepin-7-yl}[1,3]thiazolo[5,4-b]pyridin-2-amine] belongs ≤ 100 nM. To `Cc1cc(-c2cnc3sc(N)nc3c2)cc2c1OCCN(c1nc(NCCN(C)C)nc(C)c1C(C)C)C2` [Compound 50, N′-{4-[7-(2-amino[1,3]thiazolo[5,4-b]pyridin-6-yl)-9-methyl-2,3-dihydro-1,4-benzoxazepin-4(5H)-yl]-6-methyl-5-(1-methylethyl)pyrimidin-2-yl}-N,N-dimethylethane-1,2-diamine] belongs ≤ 100 nM.

In the case of `C=CCc1c(C)nc(N)nc1N1CCOc2c(C)cc(-c3cnc4sc(N)nc4c3)cc2C1` [Compound 51, 6-{4-(2-amino-6-methyl-5-prop-2-en-1-ylpyrimidin-4-yl)-9-methyl-2,3,4,5-tetrahydro-1,4-benzoxazepin-7-yl][1,3]thiazolo[5,4-b]pyridin-2-amine], the IC50 is ≤ 100 nM. Consider `Cc1cc(-c2cnc(Cl)c(NS(=O)(=O)C(F)(F)F)c2)cc2c1OCCN(c1nc(N)nc(C)c1C(C)C)C2` [Compound 52, N-(5-{4-[2-amino-6-methyl-5-(1-methylethyl)pyrimidin-4-yl]-9-methyl-2,3,4,5-tetrahydro-1,4-benzoxazepin-7-yl}-2-chloropyridin-3-yl)-1,1,1-trifluoromethanesulfonamide], for which the 50% inhibitory concentration (IC50) is ≤ 100 nM. As for `CNc1nc(C)c(C(C)C)c(N2CCOc3c(C)cc(-c4cnc5sc(N)nc5c4)cc3C2)n1` [Compound 53, 6-{9-methyl-4-[6-methyl-2-(methylamino)-5-(1-methylethyl)pyrimidin-4-yl]-2,3,4,5-tetrahydro-1,4-benzoxazepin-7-yl}[1,3]thiazolo[5,4-b]pyridin-2-amine], the figure is ≤ 100 nM; as for `CCc1c(Cl)nc(N)nc1N1CCOc2c(C)cc(-c3cnc4sc(N)nc4c3)cc2C1` [Compound 54, 6-[4-(2-amino-6-chloro-5-ethylpyrimidin-4-yl)-9-methyl-2,3,4,5-tetrahydro-1,4-benzoxazepin-7-yl}[1,3]thiazolo[5,4-b]pyridin-2-amine], ≤ 100 nM.

Turning to `Cc1cc(-c2cnc3sc(N)nc3c2)cc2c1OCCN(c1nc(N)ccc1C#N)C2` [Compound 55, 6-amino-2-[7-(2-amino[1,3]thiazolo[5,4-b]pyridin-6-yl)-9-methyl-2,3-dihydro-1,4-benzoxazepin-4(5H)-yl]pyridine-3-carbonitrile], the IC50 was ≤ 100 nM. As for `CCc1nc(N)nc(N2CCOc3c(C)cc(-c4cnc5sc(N)nc5c4)cc3C2)c1C(C)C` [Compound 56, 6-{4-[2-amino-6-ethyl-5-(1-methylethyl)pyrimidin-4-yl]-9-methyl-2,3,4,5-tetrahydro-1,4-benzoxazepin-7-yl}[1,3]thiazolo[5,4-b]pyridin-2-amine], the figure is ≤ 100 nM; as for `Cc1cc(-c2cnc3sc(N)nc3c2)cc2c1OCCN(c1nc(N)c(C#N)c(C)c1C#N)C2` [Compound 57, 2-amino-6-[7-(2-amino[1,3]thiazolo[5,4-b]pyridin-6-yl)-9-methyl-2,3-dihydro-1,4-benzoxazepin-4(5H)-yl]-4-methylpyridine-3,5-dicarbonitrile], ≤ 100 nM.

These data come from patent US20140107100A1, “Benzoxazepines as Inhibitors of PI3K/mTOR and Methods of Their Use and Manufacture” (EXELIXIS, INC., priority 2010, published 2014).
